Consider 13 compounds from article PMC6027665, “Synthesis and Cytotoxicity Evaluation of Novel Asymmetrical Mono-Carbonyl Analogs of Curcumin (AMACs) against Vero, HeLa, and MCF7 Cell Lines” (Scientia Pharmaceutica, 2018).

Molecules are shown by their SMILES. Converted amounts (≈) assume the structure as drawn. Read-outs that look alike come from different tables or passages of the source.

A short description of data set [1]: Brine shrimp lethality test (BSLT). Format: in vivo. To be noted: Artemia salina (brine shrimp) larvae, in vivo, other: compound diluted in the seawater holding the larvae; brine shrimp larvae, 24 h, triplicate. As for the experimental part: (§1) The assay was carried out according to the principle and protocol previously described by Meyer, with slight modification. Artemia salina L. eggs were inserted into a box containing seawater; the box was placed under UV lamp, and after 48 h the eggs hatched into larvae and ready for the test. The compounds (1a–1e, 2a–2e) were diluted in 10 mL seawater containing 10 larvae (1% DMSO (v/v)) until concentrations 20, 200, 500, and 1000 ppm were reached. After 24 h, the live and dead shrimp were counted. The mortality rate (%) was obtained by comparing the number of total dead larvae and the total number of larvae. The experiment was conducted in triplicate. The concentrations (dose)-response (% mortality) data were transformed into a straight line using a logit transformation, and the concentration required to kill 50% of the population (LC50 values) was derived from the best fit line obtained by linear regression analysis.

In data set [2] the test system is Artemia salina L. larvae. In words: Brine shrimp lethality test (BSLT). It is filed as in vivo. To be noted: Artemia salina, read-out: BSLT toxicity level. As for the experimental part:
as §1

The test system of data set [3] is Vero cell lines (ATCC CCL-81). Put plainly: MTT proliferation assay, Vero cell lines (normal cells). Particulars: 48 h incubation, mean ± SD (n = 3). It is filed as cell-based, African green monkey. As for the experimental part: (§2) The cytotoxic activity of the synthesized compounds was evaluated against human cervix carcinoma (HeLa, ATCC CCL-2) cell lines, human estrogen-dependent breast carcinoma (MCF7, ATCC HTB-22) cell lines, and kidney of an African green monkey (Vero, ATCC CCL-81) as a normal cell lines using the methyl thiazolyl tetrazolium (MTT) method conducted according to the MTT assay protocol published by the American Type Culture Collection (ATCC). Cisplatin was used as a reference drug. Curcumin was also evaluated as a comparative compound on the tests against Vero and MCF7 cell lines, and doxorubicin was evaluated as an additional comparator on the test against MCF7 cell lines. The assay detects the reduction of yellow tetrazolium (MTT) by metabolically active cells to be purple formazan measured using spectrophotometry.
(§3) The cells lines were seeded into 96-well plates at a density of 5000 cells per well, replenished with growth media consisting of Dulbecco’s Modified Eagle’s medium (D-MEM) for Vero or Roswell Park Memorial Institute (RPMI) 1640 medium for MCF7 and HeLa, 5% Fetal Bovine Serum (FBS), 100 U/mL penicillin, and 100 μg/mL streptomycin. The cells were incubated at 37 °C in 5% CO2 for 24 h. Then, a series concentrations of the tested compounds (1.5, 3.1, 6.2, 12.5, 25.0, 50.0, 100.0, and 200.0 µg/mL) were added to each well of the plate and incubated for 48 h. After that, 10 μL fresh solution of MTT reagent was added to each well, and the plate was incubated in a CO2 incubator at 37 °C for 4 h. After the purple precipitate was obtained, the cells were dissolved in ethanol and their optical density was recorded at 595 nm. The experiment was performed in triplicate. Percent proliferation inhibition was calculated using the following formula: Viability cells inhibition (%)=100−[(At−Ab)/(Ac−Ab)] ×100%
(§4) At = absorption of test compound, Ab = absorption of blank, Ac = absorption of control.
(§5) The concentration of the synthesized compounds required to inhibit 50% of the growth of the cell lines (IC50 values) was calculated by analyzing the relationship between concentrations and percent (%) inhibitions using GraphPad Prism 7 version 7.00 for Windows, GraphPad Software, La Jolla, CA, USA, www.graphpad.com.

The test system of data set [4] is HeLa cell lines (human cervix carcinoma, ATCC CCL-2). Put plainly: MTT proliferation assay, HeLa cell lines. It is filed as cell-based. Particulars: 48 h incubation, mean ± SD (n = 3). As for the experimental part:
as §2, §3, §4, §5
In general terms: Formazan colour is commonly taken as a measure of viable cells.

Data set [5] deals with MCF7 cell lines (human estrogen-dependent breast carcinoma, ATCC HTB-22). Put plainly: MTT proliferation assay, MCF7 cell lines. Format: cell-based. As for the experimental part: as §2, §3, §4, §5
For data set [6], the system named is HeLa cell lines (human cervix carcinoma, ATCC CCL-2). Also on record: method as in doi:10.1016/j.toxlet.2016.06.1915. Particulars: value of an earlier study; cited from earlier work.
Setting [7] is: Homo sapiens, MCF7, 48 h incubation, mean ± SD (n = 3), read-out: IC50 (µM) MCF7.

Usually IC50 stands for the midpoint of a concentration-inhibition curve.

With `CCN(CC)Cc1cc(/C=C2\CCC/C(=C\c3ccc(OC)cc3)C2=O)cc(OC)c1O` [Compound 2b, (2E,6E)-2-({3-[(diethylamino)methyl]-4-hydroxy-5-methoxyphenyl}methylidene)-6-[(4-methoxyphenyl)methylidene]cyclohexan-1-one], the LC50 at 24 h in data set [1] came to 80.2 µM. Moreover, the LC50 in data set [2] was in the range of 30 to 100 µg/mL (≈ 68.9 to 230 µM). Moreover, the half-maximal inhibitory concentration (IC50) in data set [3] (Chlorocebus sabaeus, Vero) was 7.29 ± 0.12 µM; in data set [4] (Homo sapiens), 69.3 ± 3.17 µM.
`COc1cc(/C=C2\CCC/C(=C\c3ccc(F)cc3)C2=O)ccc1O` [Compound 1c, (2E,6E)-2-[(4-hydroxy-3-methoxyphenyl)methylidene]-6-[(4-fluorophenyl)methylidene] cyclohexan-1-one]: the LC50 at 24 h in data set [1] amounted to 177 µM. For the same compound, the LC50 in data set [2] fell in the range of 30 to 100 µg/mL (≈ 88.7 to 296 µM). Further, the IC50 is 13.4 ± 0.39 µM in data set [3] (Chlorocebus sabaeus, Vero); 49.1 ± 1.17 µM in data set [4] (Homo sapiens); 10.9 ± 0.79 µM in data set [5] (setting [7]).
The corresponding values for `COc1cc(/C=C2\CCC/C(=C\c3ccc(C)cc3)C2=O)ccc1O` [Compound 1e, (2E,6E)-2-[(4-hydroxy-3-methoxyphenyl)methylidene]-6-[(4-methylphenyl)methylidene] cyclohexan-1-one] are 78.7 µM, < 30 µg/mL, 16.1 ± 0.18 µM, 61.2 ± 2.86 µM and 10.4 ± 0.36 µM.
Regarding `COc1cc(/C=C/C(=O)CC(=O)/C=C/c2ccc(O)c(OC)c2)ccc1O` [Curcumin], the concentration for half-maximal inhibition (IC50) in data set [3] (Chlorocebus sabaeus, Vero) worked out at 31.4 ± 0.41 µM; in data set [5] (setting [7]) it was 10.5 ± 1.1 µM.
In turn, `CCN(CC)Cc1cc(/C=C2\CCC/C(=C\c3ccc(C)cc3)C2=O)cc(OC)c1O` [Compound 2e, (2E,6E)-2-({3-[(diethylamino)methyl]-4-hydroxy-5-methoxyphenyl}methylidene)-6-[(4-methylphenyl)methylidene]cyclohexan-1-one] registered an LC50 at 24 h in data set [1] of 1700 µM. Further, the LC50 in data set [2] was 100 to 1000 µg/mL (≈ 238 to 2380 µM). Besides, the half-inhibitory concentration (IC50) in data set [3] (Chlorocebus sabaeus, Vero) worked out at 15.02 ± 0.14 µM; in data set [4] (Homo sapiens), 76.6 ± 4.27 µM; in data set [5] (setting [7]) it was 14.6 ± 1.96 µM.
On the same counts, the results for `COc1cc(/C=C2\CCC/C(=C\c3ccccc3)C2=O)ccc1O` [Compound 1a, (2E,6E)-2-[(4-hydroxy-3-methoxyphenyl)methylidene]-6-(phenylmethylidene)cyclohexan-1-one] are 197 µM, 30 to 100 µg/mL (≈ 93.6 to 312 µM), 13.98 ± 0.04 µM, > 100 µM and > 100 µM.
On to `COc1ccc(/C=C2\CCC/C(=C\c3ccc(O)c(OC)c3)C2=O)cc1` [Compound 1b, (2E,6E)-2-[(4-hydroxy-3-methoxyphenyl)methylidene]-6-[(4-methoxyphenyl)methylidene] cyclohexan-1-one], for which, in data set [1], the LC50 at 24 h turned out to be 323 µM. In addition, the LC50 in data set [2] lay in the range of 100 to 1000 µg/mL (≈ 285 to 2850 µM). The IC50 in data set [3] (Chlorocebus sabaeus, Vero) worked out at 15.4 ± 0.34 µM; in data set [4] (Homo sapiens), 95.5 ± 7.19 µM; in data set [5] (setting [7]), 7.86 ± 1.05 µM; in data set [5] (Homo sapiens, MCF7, same value in µg/mL, read-out: IC50 MCF7), 2.75 µg/mL.
`COc1cc(/C=C2\CCC/C(=C\c3ccc(Cl)cc3)C2=O)ccc1O` [Compound 1d, (2E,6E)-2-[(4-hydroxy-3-methoxyphenyl)methylidene]-6-[(4-chlorophenyl)methylidene] cyclohexan-1-one]: the LC50 at 24 h in data set [1] came out at 204 µM. In data set [2], the LC50 was 30 to 100 µg/mL (≈ 84.5 to 282 µM). Also, the IC50 in data set [3] (Chlorocebus sabaeus, Vero) worked out at 14.1 ± 0.18 µM; in data set [4] (Homo sapiens) it was 55.6 ± 1.49 µM; in data set [5] (setting [7]) it was 35.9 ± 4.57 µM.
In data set [1], `CCN(CC)Cc1cc(/C=C2\CCC/C(=C\c3ccc(F)cc3)C2=O)cc(OC)c1O` [Compound 2c, (2E,6E)-2-({3-[(diethylamino)methyl]-4-hydroxy-5-methoxyphenyl}methylidene)-6-[(4-fluorophenyl)methylidene]cyclohexan-1-one] displayed an LC50 at 24 h of 88.4 µM. The LC50 in data set [2] was in the range of 30 to 100 µg/mL (≈ 70.8 to 236 µM). For the same compound, the IC50 in data set [3] (Chlorocebus sabaeus, Vero) came out at 4.23 ± 0.32 µM; in data set [4] (Homo sapiens), 41.1 ± 0.16 µM.
The corresponding values for `CCN(CC)Cc1cc(/C=C2\CCC/C(=C\c3ccc(Cl)cc3)C2=O)cc(OC)c1O` [Compound 2d, (2E,6E)-2-({3-[(diethylamino)methyl]-4-hydroxy-5-methoxyphenyl}methylidene)-6-[(4-chlorophenyl)methylidene]cyclohexan-1-one] are 29.8 µM, < 30 µg/mL, 3.94 ± 0.07 µM and 40.6 ± 0.98 µM.
The corresponding values for `CCN(CC)Cc1cc(/C=C2\CCC/C(=C\c3ccccc3)C2=O)cc(OC)c1O` [Compound 2a, (2E,6E)-2-({3-[(diethylamino)methyl]-4-hydroxy-5-methoxyphenyl}methylidene)-6-(phenylmethylidene)cyclohexan-1-one] are 921 µM, 100 to 1000 µg/mL (≈ 247 to 2470 µM), 4.14 ± 0.21 µM and 46.6 ± 1.54 µM.
With `N.N.[Cl][Pt][Cl]` [Cisplatin, reference compound], the concentration for half-maximal inhibition (IC50) in data set [3] is 84.7 ± 2.09 µM; in data set [4], 67.6 ± 2.04 µM; in data set [5] (48 h incubation, mean ± SD (n = 3), read-out: IC50 (µM) MCF7), 12.8 ± 1.35 µM; in data set [6] it was 12.3 µM.
For `COc1cccc2c1C(=O)c1c(O)c3c(c(O)c1C2=O)C[C@@](O)(C(=O)CO)C[C@@H]3O[C@H]1C[C@H](N)[C@H](O)[C@H](C)O1` [Doxorubicin, reference compound], in data set [5] (setting [7]), the IC50 was < 2.94 µM.
